Values quoted from earlier work, collected in US6379705B1, “Stable multi-unitary pharmaceutical preparations containing substituted benzimidazoles” (Laboratorio Mendifar-Produtos Farmaceuticos, S.A., priority 1999, dated 2002).

In the case of `COc1ccc2[nH]c([S+]([O-])Cc3ncc(C)c(OC)c3C)nc2c1` (centres unmarked) [omeprazole], the “pH of maximum stability of solutions” value (omeprazole solutions) is given as 11 and the degradation in solution (pHs lower than 7.8) is given as “very quickly”.
